Source: US20060270634A1, “Acetal phosphate-derived LPA mimics, PPARgamma activators, and autotaxin inhibitors” (priority 2005, published 2006)
Read-outs that look alike come from different tables or passages of the source.

Assays:
[1] = target: LPA2 (Homo sapiens, UniProt Q9HBW0); assay: Ca2+ transients in RH7777 cells expressing LPA2 (agonist / inhibition of LPA response)
Description: (§1) The biological effects of all synthesized compounds were testing using three high-throughput assays. First, intracellular calcium transients in rat hepatoma (RH777, an LPA receptor null cell) cell lines individually expressing either LPA1, LPA2, and LPA3 receptors were analyzed to evaluate compounds as agonists or antagonists.
(§2) Synthesized compounds were tested for induction and inhibition of LPA-induced calcium transients in rat hepatoma (RH7777) cell lines that stably express individual LPA1, LPA2, and LPA3 receptors as described in the literature using a FlexStation II automated fluorimeter (Molecular Devices, Sunnyvale, Calif.).
(§3) RH7777 cells, which lack LPA GPCR, were stably transfected with individual LPA1, LPA2 and LPA3 receptors and used for the in vitro screening.

[2] = target: LPA1 (Homo sapiens, UniProt Q92633); assay: Ca2+ transients in RH7777 cells expressing LPA1 (agonist / inhibition of LPA response); settings: for LPA1 effect in words: Tables 2, 4, 6
LPA1, sequence (Q92633 whole entry, species assumed): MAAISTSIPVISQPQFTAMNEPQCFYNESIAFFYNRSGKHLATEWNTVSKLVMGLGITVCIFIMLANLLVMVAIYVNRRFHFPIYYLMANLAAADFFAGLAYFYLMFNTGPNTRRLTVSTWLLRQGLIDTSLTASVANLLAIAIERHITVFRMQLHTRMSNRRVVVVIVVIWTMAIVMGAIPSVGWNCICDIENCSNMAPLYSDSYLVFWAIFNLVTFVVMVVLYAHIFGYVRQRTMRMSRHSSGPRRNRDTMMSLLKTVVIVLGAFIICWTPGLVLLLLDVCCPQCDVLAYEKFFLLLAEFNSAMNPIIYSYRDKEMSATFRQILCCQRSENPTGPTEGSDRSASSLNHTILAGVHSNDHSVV
Description: as §1, §2, §3

[3] = target: T1, LPA3 (Homo sapiens, UniProt Q9UBY5); assay: Ca2+ transients in RH7777 cells expressing LPA3 (agonist / inhibition of LPA response)
T1 sequence (Q9UBY5 1-353): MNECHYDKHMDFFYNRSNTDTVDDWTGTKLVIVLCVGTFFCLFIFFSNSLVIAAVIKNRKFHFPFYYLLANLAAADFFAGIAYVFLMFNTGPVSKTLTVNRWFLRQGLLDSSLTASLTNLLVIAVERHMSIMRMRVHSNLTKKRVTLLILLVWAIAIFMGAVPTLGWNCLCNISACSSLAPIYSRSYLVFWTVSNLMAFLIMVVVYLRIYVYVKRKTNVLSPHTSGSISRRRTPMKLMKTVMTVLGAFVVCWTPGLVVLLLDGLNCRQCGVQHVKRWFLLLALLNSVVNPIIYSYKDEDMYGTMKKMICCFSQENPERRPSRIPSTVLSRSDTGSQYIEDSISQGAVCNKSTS
Description: as §1, §2, §3

[4] = test system: PC3 cells; assay: Calcium mobilization response in PC3 cells; format: cell-based
[5] = read-out: LPA3 IC50, 200 nM LPA

LPA2, sequence (Q9HBW0 whole entry, species assumed): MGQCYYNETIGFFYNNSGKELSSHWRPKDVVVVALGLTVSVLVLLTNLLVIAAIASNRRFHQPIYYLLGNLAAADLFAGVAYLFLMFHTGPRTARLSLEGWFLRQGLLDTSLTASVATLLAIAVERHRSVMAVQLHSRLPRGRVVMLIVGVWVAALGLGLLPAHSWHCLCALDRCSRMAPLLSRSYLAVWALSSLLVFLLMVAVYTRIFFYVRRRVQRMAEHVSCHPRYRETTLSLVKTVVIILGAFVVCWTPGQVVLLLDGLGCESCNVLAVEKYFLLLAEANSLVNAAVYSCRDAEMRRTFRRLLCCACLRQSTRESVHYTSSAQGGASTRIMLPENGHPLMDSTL

CCCCCCCCCCCCCCC(F)(F)P(=O)(O)O
EC50 ([1]; LPA2 EC50, Table 4): ~10000 nM
LPA2 effect in words ([1]; Table 4): Weak agonist
LPA1 effect in words [2]: Weak inhibition
IC50 [3, 5]: 1510 nM

CCCCCCCCc1ccc(CCCCCCCOP(O)(O)=S)cc1
EC50 ([1]; LPA2 EC50, Table 4): 6060 nM
LPA2 effect in words ([1]; Table 4): full agonist
EC50 ([2]; LPA1 EC50): 4830 nM
LPA1 effect in words [2]: Partial agonist
EC50 [3]: 858 nM
LPA3 effect in words ([3]; Tables 2, 4, 6): Partial agonist

CCCCCCCCc1ccc(CCCCCCCOP(=O)(O)O)cc1
LPA2 effect in words ([1]; Table 4): Weak antagonist
EC50 [2]: 21500 nM
LPA1 effect in words [2]: Partial agonist
IC50 [3]: 1760 nM

CCCCCCCCCCCCC1OCC(COP(=O)(O)O)O1 (centres unmarked) [Analog 4]
EC50 ([1]; LPA2 EC50, text): 1180 nM
EC50 [2]: > 30000 nM
IC50 ([2]; LPA1 (nM) IC50, Table 1): 1110 nM
IC50 ([2]; LPA1 IC50, text): 1100 nM
EC50 [3]: > 30000 nM
IC50 [3]: 2870 nM

CCCCCCCC/C=C\CCCCCCCC1OCC(COP(=O)([O-])O)O1.[K+] (centres unmarked) [Analog 5]
LPA2 agonist/antagonist activity in words [1]: full LPA2 agonist
EC50 ([1]; LPA2 (nM) EC50, Table 1): 68 nM
EC50 [3]: > 30000 nM
IC50 [3]: 527 nM
LPA3 agonist/antagonist activity in words [3]: LPA1/3 antagonist

CCCCCCCC/C=C\CCCCCCCC1OCC(COP([O-])(O)=S)O1.[K+] (centres unmarked) [Analog 6]
LPA2 agonist/antagonist activity in words [1]: pan-agonists
EC50 ([1]; LPA2 (nM) EC50, Table 1): 34 nM
IC50 [2]: > 30000 nM
LPA1 agonist/antagonist activity in words [2]: pan-agonists
EC50 ([2]; LPA1 (nM) EC50, Table 1): 981 nM
EC50 [3]: 639 nM
IC50 [3]: > 30000 nM
LPA3 agonist/antagonist activity in words [3]: pan-agonists

CCCCCCCC/C=C\CCCCCCCC1OCC(COP(=O)([O-])O)O1.[K+] (centres unmarked) [Analog 13, 2-Heptadec-8-enyl-(1,3)dioxolan-4yl methyl dipotassium phosphate]
LPA2 effect in words ([1]; *transient): full agonist
EC50 ([1]; LPA2 EC50, *transient): 68 nM
IC50 ([1]; RH-LPA2 cells IC50, inhibition of 200 nM LPA response): 460 nM
IC50 ([1]; RH-LPA2 cells IC50, inhibition of 300 nM LPA response): 777 nM
IC50 ([4]; Homo sapiens, PC-3, read-out: PC3 cells IC50): 1500 nM
IC50 ([4]; read-out: PC3 cells IC50, listed as 18:1 Δ 9 acetal phosphate): 1040 nM
IC50 [3, 5]: 527 nM

CCCCCCCCc1ccc(CCCCCCC2OCC(COP(=O)(O)O)O2)cc1 (centres unmarked) [Analog 14]
IC50 [1]: > 30000 nM
EC50 ([1]; LPA2 (nM) EC50, Table 1): > 30000 nM
IC50 [2]: 4660 nM
EC50 ([2]; LPA1 (nM) EC50, Table 1): > 30000 nM
EC50 [3]: 692 nM
IC50 [3]: > 30000 nM

CCCCCCCCc1ccc(CCCCCCC2OCC(COP([O-])(O)=S)O2)cc1.[K+] (centres unmarked) [Analog 15]
IC50 [1]: > 30000 nM
LPA2 agonist/antagonist activity in words [1]: no effect
EC50 ([1]; LPA2 (nM) EC50, Table 1): > 30000 nM
LPA1 agonist/antagonist activity in words [2]: no effect
EC50 ([2]; LPA1 (nM) EC50, Table 1): > 30000 nM
EC50 [3]: > 30000 nM
IC50 [3]: 504 nM
LPA3 agonist/antagonist activity in words [3]: sub-type selective LPA3 antagonist

CCCCCCCC/C=C\CCCCCCC[C@@H]1OC[C@H](COP(=O)(O)O)O1 [Analog 21]
EC50 ([1]; LPA2 (nM) EC50, Table 1): > 10000 nM
IC50 ([1]; LPA2 (nM) IC50, Table 1): > 30000 nM
EC50 [3]: > 30000 nM
IC50 [3]: 484 nM

CCCCCCCC/C=C\CCCCCCC[C@@H]1OC[C@H](COP(O)(O)=S)O1 [Analog 22]
IC50 [1]: > 30000 nM
EC50 ([1]; LPA2 (nM) EC50, Table 1): 1540 nM
EC50 [3]: 204 nM
IC50 [3]: > 30000 nM

CCCCCCCC/C=C\CCCCCCC[C@H]1OC[C@H](COP(=O)(O)O)O1 [Analog 23]
EC50 ([1]; LPA2 (nM) EC50, Table 1): > 30000 nM
IC50 ([1]; LPA2 (nM) IC50, Table 1): > 30000 nM

CCCCCCCC/C=C\CCCCCCC[C@H]1OC[C@H](COP(O)(O)=S)O1 [Analog 24]
IC50 [1]: > 30000 nM
EC50 ([1]; LPA2 (nM) EC50, Table 1): 1320 nM

CCCCCCCC/C=C\CCCCCCC[C@H]1OC[C@@H](COP(=O)(O)O)O1 [Analog 25]
EC50 ([1]; LPA2 (nM) EC50, Table 1): 1170 nM
IC50 ([1]; LPA2 (nM) IC50, Table 1): > 30000 nM
